# Experimental data from US10071102B2, “Injectable mirtazapine for treating appetite loss and nutritional disorders in cats” (VIRBAC, priority 2013, dated 2018).
# Tested on: appetite of cats
# Assay: Food consumption (appetite) of stressed healthy cats after dose administration
# Format: in vivo, cat
# Conditions: subcutaneous injection 3.75 mg vs oral 3.75 mg
# Text: The purpose of these tests is to evaluate the effect of administration of mirtazapine by subcutaneous injection on the appetite of cats as compared to dose administration by the oral route (positive control) and a control (injection of saline solution, negative control). The healthy cats selected were previously acclimated for at least seven days prior to testing; during this period, they were examined by a veterinarian. They were then divided into three groups of two cats each according to a cross-over experimental design, with each cat receiving each of the 3 treatments according to a predetermined sequence: • 0.5 ml of saline (0.9% sodium chloride) was administered by subcutaneous injection in the interscapular area to the T0 group which represents the negative control; • the group T1 received a subcutaneous injection, in the interscapular area, of 0.5 ml of the tested formulation of mirtazapine (represents a dose administration of 3.75 mg of mirtazapine); • the group T3 instead received 0.25 ml (represents a dose administration of 3.75 mg of mirtazapine) of the liquid formulation by means of forced administration (syringe) in the mouth and represents the positive control group. […] The food consumption is represented in FIGS. 2A (food consumption measured at each point) and 2B (cumulative food consumption).
structure (smiles),measurement,value
"CN1CCN2c3ncccc3Cc3ccccc3C2C1 (centres unmarked) [mirtazapine, 1,2,3,4,10,14b-hexahydro-2-methylpyrazino(2,1-a)pyrido(2,3-c)benzazepine]",duration of appetite induction compared with oral administration,inducing appetite for a longer time period
same,increase in appetite (food consumption) compared with same dose by oral route,as effective as the administration of the same dose by oral route
